The values below come from patent EP0550007A2, “Eseroline derivatives having anticholinesterase activity, a process for their preparation and pharmaceutical compositions containing them” (priority 1991, dated 1993).

What is called LD50 is the dose expected to kill half of the subjects tested. A lower LD50 goes with greater toxicity.

Series [1] deals with acetylcholinesterase activity (AchE). Put plainly: in vivo anticholinesterase activity (blood and brain, Ellman colorimetric method). Set-up: species or system Wistar male rats. The conditions noted are these: rats, oral, 1.5 to 4 mg/kg; sacrificed after 20, 60 and 120 minutes. The method, then: The derivatives, under question and physostigmine suspended in 2% carboxymethylcellulose, were orally administered to groups of Wistar male rats (average weight about 250 g).
On the base of the obtained results in preliminary trials, the doses utilized for the comparison were comprised beween 0.2 and 0.4 mg/kg for physostigmine and between 1.5 and 4 mg/kg for the eseroline derivatives under question.
The groups of treated rats were sacrificed after 20, 60, and 120 minutes and the blood and the brain of each animal were immediately cooled to 0°C and maintained at this temperature during the successive treatments.
The acetylcholinesterase activity (AchE) was determined by using the Ellman et al's quick colorimetric method (Biochem. Pharmacol., 7, 88, 1961) and it was expressed as enzymatic inhibition percentage.

Series [2] relates to mouse. Put plainly: spontaneous motility (Dews' method modified according to Carminati). It is filed as in vivo, mouse (SWISS strain). The conditions noted are these: for reduction of spontaneous motility: oral, starting from minimal doses of 3.5-5 mg/kg, on average; for minimal doses causing a marked reduction of spontaneous motility: orally administered. The source says:
The Dews' method was utilized, as modified according to Carminati (Arch. Int. Pharmacodyn. et Thér. 181, 68,1969).

Series [3] can be described thus: acute toxicity, oral LD50 in the mouse. As to conditions: mouse, in vivo, po.
Source text: (§1) The mouse was used (Swiss strain having the average weight of the male mice being 26 g and 22 g that of the female mice: 5+5 animals per dose, observation period: 7days) The oral LD50 (suspension in 2% carboxymethylcellulose) were reported hereinbelow: Tab.2
A short description of series [4]: antagonist activity against the stimulating effect of an anticholinergic substance (scopolamine). The conditions noted are these: scopolamine subcutaneously injected, 1mg/kg, mice. It is filed as in vivo, mice SWISS. The method, then:
As the central anticholinergic stimulating agent the scopolamine was used subcutaneously injected to groups of 10 mice SWISS ([…]) at the dose of 1mg/kg.
At this dose the substance under question caused in all the animals a marked increase (80-100%) of the spontaneous motility, evaluated according to the above described method .

The nature of series [5]: antagonist effect on the stimulating effect of scopolamine (motor activity), ESE series. As to conditions: scopolamine at the dose of 1 mg/kg. It is filed as in vivo. The method, then: This is countered by the oral administration of 2.5 mg of ESE001, ESE002, ESE003, ESE004.
Series [6] can be described thus: effect on the succinylcholine curarization duration (corneal reflex). The format is in vivo. The conditions noted are these: i.v. administration of 0.6 mg/kg, rabbit; compared with physostigmine.
Series [7] has as its system mouse. Put plainly: acute toxicity, oral LD50 in the mouse. As to conditions: oral, suspension in 2% carboxymethylcellulose, observation period 7 days.
Source text: as §1

Turning to `CN1CC[C@@]2(C)c3cc(OC(=O)Nc4ccc5c(c4)OCO5)ccc3N(C)[C@@H]12` [MGT7, eseroline 1,3 benzodioxol-5 carbamate], the “inhibitory activity of the acetylcholinesterase” value in series [1] was “evident dose dipendent and reversible inhibitory activity”. Moreover, in the series with mouse [2], the “reduction of spontaneous motility” value was around -39% and the “minimal doses causing a marked reduction of spontaneous motility” value was in the range of 3.5 to 5 mg/kg. The same compound returned an LD50 at 168 h in series [3] of 332 mg/kg.

Consider `CN1[C@@H]2C[C@@H](OC(=O)[C@H](CO)c3ccccc3)C[C@H]1[C@@H]1O[C@@H]12` [scopolamine, reference compound], for which the “increase of the spontaneous motility” value in series [4] is listed as 80-100%. Besides, the “increase in motor activity (stimulating effect)” value in series [5] was found to be 100%.

Turning to “eseroline L-prolylpyrrolidinamide [MGT2]”, the “anticholinesterase effect with respect to the succinylcholine curarizing action” value in series [6] is reported as “the same anticholinesterase effect”. Also, the “inhibitory activity of the acetylcholinesterase” value in series [1] is “evident dose dipendent and reversible inhibitory activity”. For the same compound, in the series with mouse [2], the “reduction of spontaneous motility” value is reported as around -39% and the “minimal doses causing a marked reduction of spontaneous motility” value was in the range of 3.5 to 5 mg/kg. The “LD50 in the mouse” value with mouse [7] is recorded as 342,2 ± 11,16 mg/kg.
